Holding throughout (test): NCI-60 cell line screen, 48 h
For experiment [1], the system named is SNB-19 CNS.
Experiment [2] has as its system CCRF-CEM leukemia.
Experiment [3] relates to HOP-62 NSCLC.
The subject of experiment [4] is SF-295 CNS.
The subject of experiment [5] is HL-60(TB) leukemia.
The subject of experiment [6] is SK-MEL-5 melanoma.
Experiment [7] relates to K-562 leukemia.
The test system of experiment [8] is RXF 393 renal.
For experiment [9], the system named is OVCAR-3 ovarian.
The subject of experiment [10] is PC-3 prostate.
For experiment [11], the system named is MALME-3M melanoma.
Experiment [12] relates to NCI-H226 lung.

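Protocol summary: plate cells (96-well), add compound at 5 concentrations, incubate 48 h, interpolate endpoints linearly. Definition used: TGI = concentration required for complete inhibition of growth.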

Turning to `O=C(NC12CC3CC(CC(C3)C1)C2)n1cnc2cncnc21`, the TGI in [1] is over 100 µM; in experiment [2], over 100 µM; in [3], 51.5 µM; in [4], 67.6 µM; in experiment [5], over 100 µM; in experiment [6], 30.6 µM. The TGI in experiment [7] was over 100 µM; in [8], over 100 µM; in [9], 47 µM; in experiment [10], 98.7 µM; in experiment [11], 78.6 µM.
For `C/C(=N\NC(=S)N/N=C(\C)c1ccccn1)c1ccccn1`, the TGI in [1] was over 100 µM; in [2], 1.7 µM; in experiment [3], 5.28 µM; in experiment [4], over 100 µM; in [5] it was over 100 µM; in experiment [6] it was over 100 µM. In addition, the TGI is 3.78 µM in experiment [12]; 7.92 µM in experiment [7]; over 100 µM in [9]; over 100 µM in experiment [10]; over 100 µM in experiment [11].
As to `CC1CN=C(c2ccc3c(c2)Cc2cc(C4=NCC(C)N4)ccc2-3)N1` (stereo not drawn), the TGI in [1], in [2], in experiment [3], in experiment [4], in experiment [6] and in [12] was over 100 µM each time. The TGI in experiment [7] is over 100 µM; in experiment [8], over 100 µM; in experiment [9], 53.7 µM; in experiment [10] it was over 100 µM; in [11], 46 µM.
Regarding `COC12OC3(C4OC41)C(C(=O)O[C@H]3CO[Si](C)(C)C(C)(C)C)C2S(=O)(=O)c1ccccc1` (stereo partly drawn), the TGI in experiment [2] is 4.04 µM; in experiment [3], over 5.97 µM; in experiment [4], over 100 µM; in [5], 7.66 µM; in experiment [12], over 100 µM; in [7] it was 5.03 µM. For the same compound, the TGI was over 100 µM in experiment [9], over 90.2 µM in experiment [10] and over 85.1 µM in experiment [11].
Take `N#CCCN(CCN(CCN(C(=O)Nc1ccccc1)c1ccccc1)C(=O)Nc1ccccc1)C(=O)Nc1ccccc1`: the TGI in [1], in [2], in [3], in experiment [4], in experiment [6] and in experiment [12] was over 100 µM throughout. Besides, the TGI in experiment [8], in experiment [9] and in [10] was over 100 µM throughout.
Consider `CC12CCC3=C(CSC4=C3CSc3ccccc34)C1=CCCC2=O` (stereo not drawn), for which the TGI in experiment [1] is over 100 µM; in experiment [2], over 100 µM; in experiment [3], over 100 µM; in [5], over 100 µM; in experiment [6], 53 µM; in experiment [12], over 100 µM. For the same compound, the TGI in [7], in experiment [8], in experiment [9] and in experiment [11] was over 100 µM throughout.
In the case of `O=C(O)CC(Cc1ccccc1)C(=O)O` (stereo not drawn), the TGI in [1], in experiment [2], in [3], in [4], in experiment [6] and in [12] was over 100 µM in each case. In addition, the TGI in experiment [7], in [8], in experiment [9], in experiment [10] and in experiment [11] was over 100 µM each time.
Regarding `C=CCCCN1C(=O)C2C3c4ccccc4C(C=O)(c4ccccc43)C2C1=O` (stereo not drawn), the TGI amounted to 32.1 µM in [1]; 17.6 µM in experiment [2]; 28.2 µM in [3]; 26.1 µM in experiment [4]; 34.5 µM in experiment [5]; 23.5 µM in experiment [6]. The TGI in experiment [7] was found to be 17.8 µM; in experiment [9] it was 23.4 µM; in [10], 26.3 µM; in [11] it was 26.4 µM.
Turning to `Brc1ccc2c(c1)[C@H]1CCc3c([nH]c4ccccc34)[C@H]1N2`, the TGI in experiment [1] is 27 µM; in [2], 21.6 µM; in [3] it was 25.6 µM; in [4], 24.5 µM; in experiment [6], 12.1 µM; in [12] it was 28.4 µM. Besides, the TGI came out at 39.8 µM in [7]; 33.4 µM in experiment [8]; 25.3 µM in experiment [9]; 22.4 µM in experiment [10]; 22.8 µM in [11].
Turning to `CCCCc1ccc(Nc2nc(N)c3[nH]cnc3n2)cc1`, the TGI in [1] was 37.8 µM; in experiment [2] it was 52.4 µM; in experiment [4] it was 68.8 µM; in [5], 42.5 µM; in [6] it was 30.9 µM; in experiment [12], 53.2 µM. Further, the TGI is over 100 µM in experiment [7], 51.9 µM in experiment [9], 39.7 µM in experiment [10] and 38.1 µM in experiment [11].
For `c1ccc(C[P+]2(c3ccccc3)CCCCC2)cc1`, the TGI was over 100 µM in [1]; over 100 µM in experiment [2]; over 100 µM in experiment [3]; over 100 µM in [4]; over 100 µM in experiment [5]; 71.9 µM in experiment [6]. The TGI in experiment [12], in [7], in [8], in experiment [9] and in experiment [11] was over 100 µM throughout.
On to `C(=C/c1ccc2nc(-c3ccc(/C=C/C=N/NC4=NCCCN4)cc3)cn2c1)/C=N/NC1=NCCCN1`, for which the TGI in [1] was over 100 µM; in experiment [2], over 100 µM; in experiment [3] it was over 100 µM; in experiment [4] it was over 100 µM; in [6], over 100 µM; in experiment [12], 32.6 µM. For the same compound, the TGI in experiment [7] was 79.9 µM; in [8], 48.6 µM; in experiment [9] it was over 100 µM; in experiment [10], 67.4 µM.
As to `O=C1N2CCN=C2c2ccccc2C1(O)c1ccccc1` (stereo not drawn), the TGI in experiment [1], in experiment [2], in experiment [3], in [4], in experiment [5] and in [6] was over 100 µM in each case. Besides, the TGI in [12], in [7] and in experiment [10] was over 100 µM each time.

These data come from PubChem BioAssay (NCI).
